We go through 12 compounds from patent US20110207789A1, “METHODS RELATED TO CASEIN KINASE II (CK2) INHIBITORS AND THE USE OF PURINOSOME-DISRUPTING CK2 INHIBITORS FOR ANTI-CANCER THERAPY AGENTS” (priority 2010, published 2011).

By EC50 is commonly meant the concentration needed to bring the measured effect to its halfway point.

Read-outs that look alike come from different tables or passages of the source. Numbered stars: 1 amine (or outer) side, 2 acyl side, 3 side chain; on linkers, the order of the positions; unused ones are H or OH. Bridge positions count the residues as written; N and C are the ends. Square brackets hold non-standard residues; d marks the D form. Peptide text beside a SMILES is read from it. Trp(2-yl) = O=C([C@H](Cc1c([*:3])[nH]c2ccccc12)N[*:1])[*:2]; Leu(4R-OH,5-OH) = C[C@](O)(CO)C[C@H](N)C(=O)O; cisHyp = O=C(O)[C@@H]1C[C@H](O)CN1

Type in all cases: cell-based
The subject of test [1] is HeLa cells. As to the kind of experiment: Label-free Epic DMR assay in HeLa cells cultured in purine depleted medium. The settings on record: TBB 100 μM, DMAT 25 μM. The source says: HeLa cells were obtained from American Type Cell Culture (Manassas, Va.). This cervical cancer cell line was maintained in standard serum medium (i.e., minimum essential medium (MEM) (Invitrogen) supplemented with 10% fetal bovine serum (FBS) and 1% Penicillin/streptomycin). To investigate the effects of purine depletion on the purinosome formation and dissociation, HeLa cells were maintained for at least two passages in “purine-depleted medium” prior cell assays. The purine depleted medium is a medium consisting of Roswell Park Memorial Institute 1640 (RPMI 1640) supplemented with dialyzed 5% FBS […]. FBS was dialyzed against 0.9% NaCl at 4° C. for ˜2 days using a 25 kDa MWCO dialysis membrane to remove purines. This process completely removes the purines normally present in FBS. […]
For biosensor cellular assays, compound solutions were made by diluting the stored concentrated solutions with the HBSS (1× Hanks balanced salt solution, plus 20 mM Hepes, pH 7.1), and transferred into a 384 well polypropylene compound storage plate to prepare a compound source plate. […] Both the cell assay plate and the compound source plate(s) were then incubated in the hotel of the reader system. After incubation the baseline wavelengths of all biosensors in the cell assay microplate were recorded and normalized to zero. […]

In a further test the test system is purinosome complexes. As to the kind of experiment: Fluorescence imaging of purinosome complexes, transient transfection of fluorescent purine synthesis enzymes. The settings on record: purine depleted medium cultured cells, low confluency (~50%); data not shown. The source says:
The inconsistency in the action of TBB between fluorescence imaging and label-free cellular assays can be due to that confocal fluorescence imaging is largely single cell-based, while label-free assay is largely population cells-based, as well as different confluencies used in both assays.

Test [2] concerns HeLa cells. As to the kind of experiment: Label-free Epic RWG biosensor DMR assay in HeLa cells cultured in regular serum medium. The settings on record: for Type of DMR signal triggered by the compound alone: HeLa cells, regular serum medium, high confluency; for EC50: Homo sapiens, synchronized HeLa cells, 25,000 cells per well; for Classification as purinosome promoting or disrupting CK2 inhibitor: from DMR signals in HeLa cells; for Effect on purinosome complexes in quiescent cells: high seeding density; for Effect on purinosome complexes in proliferating cells: low seeding density; for Effect of pretreatment on the TBB DMR response / Effect of pretreatment on the DMAT DMR response: pretreatment about 1 hr, modulators 10 μM; for Effect of pretreatment on the TBB DMR response: then TBB 50 μM; for Effect of pretreatment on the TBB DMR response / Sensitivity of the DMR signal to cellular status / Effect of pretreatment on the sequential TBB response after DMAT / Effect of pretreatment on the sequential DMAT response after TBB: DMAT 25 μM; for Sensitivity of the DMR signal to cellular status: three seeding densities (5,000, 10,000, 20,000 cells per well), TBB 100 μM; for Effect of pretreatment on the DMAT DMR response: then DMAT 25 μM; for Effect of pretreatment on the DMAT DMR response / Effect of pretreatment on the sequential TBB response after DMAT / Effect of pretreatment on the sequential DMAT response after TBB: TBB 50 μM; for Effect of pretreatment on the sequential TBB response after DMAT / Effect of pretreatment on the sequential DMAT response after TBB: order modulator (10 μM), each step about 1 hr. The source says: HeLa cells were obtained from American Type Cell Culture (Manassas, Va.). This cervical cancer cell line was maintained in standard serum medium (i.e., minimum essential medium (MEM) (Invitrogen) supplemented with 10% fetal bovine serum (FBS) and 1% Penicillin/streptomycin). To investigate the effects of purine depletion on the purinosome formation and dissociation, HeLa cells were maintained for at least two passages in “purine-depleted medium” prior cell assays. […] FBS was dialyzed against 0.9% NaCl at 4° C. for ˜2 days using a 25 kDa MWCO dialysis membrane to remove purines. This process completely removes the purines normally present in FBS.
Cells were typically grown using ˜1 to 2×10^4 cells per well at passage 3 to 15 suspended in 50 μl of the corresponding culture medium in the biosensor microplate, and were cultured at 37° C. under air/5% CO2 for ˜1 day. The confluency for all cells at the time of assays was ˜100%.
Epic® wavelength interrogation system (Corning Inc., Corning, N.Y.) was used for whole cell sensing. This system consists of a temperature-control unit, an optical detection unit, and an on-board liquid handling unit with robotics. The detection unit is centered on integrated fiber optics, and enables kinetic measures of cellular responses with a time interval of ˜15sec. The compound solutions were introduced by using the on-board liquid handling unit (i.e., pippetting).
(§1) For biosensor cellular assays, compound solutions were made by diluting the stored concentrated solutions with the HBSS (1× Hanks balanced salt solution, plus 20 mM Hepes, pH 7.1), and transferred into a 384 well polypropylene compound storage plate to prepare a compound source plate. Two compound source plates were made separately when a two-step assay was performed. In parallel, the cells were washed twice with the HBSS and maintained in 30 μl of the HBSS to prepare a cell assay plate. Both the cell assay plate and the compound source plate(s) were then incubated in the hotel of the reader system. After incubation the baseline wavelengths of all biosensors in the cell assay microplate were recorded and normalized to zero. Afterwards, a 2 to 10 min continuous recording was carried out to establish a baseline, and to ensure that the cells reached a steady state. Cellular responses were then triggered by transferring 10 μl of the compound solutions into the cell assay plate using the on-board liquid handler.
All studies were carried out at a controlled temperature (28° C.). At least two independent sets of experiments, each with at least three replicates, were performed.

A further test relates to HT29 cells. As to the kind of experiment: TBB-mediated DMR signal in HT29 cells. To be noted: 10 μM TBB, highly confluent cells. How it is done: as §1, with “All other cell lines were obtained from American Type Cell Culture (Manassas, VA) and were cultured under corresponding standard culture conditions, according to the protocol recommended by the supplier. Cells were typically grown using ˜1 to 2×10^4 cells per well at passage 3 to 15 suspended in 50 μl of the corresponding culture medium in the biosensor microplate, and were cultured at 37° C. under air/5% CO2 for ˜1 day. The confluency for all cells at the time of assays was ˜100%. For” for “For”, “Cellular responses were then triggered by transferring 10 μl of the compound solutions into the cell assay plate using the on-board liquid handler.” left out

Take `CN(C)c1nc2c(Br)c(Br)c(Br)c(Br)c2[nH]1` [DMAT, 2-Dimethylamino-4,5,6,7-tetrabromo-1H-benzimidazole]: the “Type of DMR signal in purine depleted culture” value in the test on HeLa cells [1] is given as “P-DMR”. For the same compound, the “Effect on purinosome complexes by fluorescence imaging” value in the test with purinosome complexes is listed as “formation of purinosome complexes”. Also, in the test on HeLa cells [2], the “Type of DMR signal triggered by the compound alone” value (“Type of DMR signal triggered” below) is given as “P-DMR”, the “Classification as purinosome promoting or disrupting CK2 inhibitor” value is “purinosome promoting CK2 inhibitors”, the “Effect on purinosome complexes in quiescent cells” value is given as “promotes the further formation of purinosome complexes” and the “Effect on purinosome complexes in proliferating cells” value is recorded as “promote the formation of purinosomes”. In the test with HeLa cells [2], the “Effect of pretreatment on the TBB DMR response” value (“Effect … on the TBB DMR response” below) is on record as “N-DMR similar to the buffer treated cells” and the “Sensitivity of the DMR signal to cellular status” value is reported as “insensitive to cellular status”. Also, the EC50 in the test with HeLa cells [2] (dependent on the time points after stimulation (6 min and 50 min), read-out: EC50 of dose-dependent P-DMR response) lay within 5 to 22 µM.
Turning to `OC[C@H]1O[C@@H](n2cnc3cc(Cl)c(Cl)cc32)[C@H](O)[C@@H]1O` [DRB, 5,6-Dichlorobenzimidazole 1-(β-D-ribofuranoside], in the test on HeLa cells [2], the “Type of DMR signal triggered” value is “DMR signals similar to the DMAT response”, the “Classification as purinosome promoting or disrupting CK2 inhibitor” value is reported as “purinosome promoting CK2 inhibitors”, the “Effect of pretreatment on the DMAT DMR response” value is recorded as “desensitized” and the “Effect … on the TBB DMR response” value was “slightly potentiated”.
In the case of `Brc1c(Br)c(Br)c2[nH]nnc2c1Br` [TBB, 4,5,6,7-tetrabromobenzotriazole], the “Type of DMR signal in purine depleted culture” value with HeLa cells [1] was “P-DMR”. The “Effect on purinosome complexes by fluorescence imaging” value in the test with purinosome complexes is “disassembly of purinsome complexes”. For the same compound, the “TBB DMR signal in HT29 cells” value with HT29 cells is listed as “an initial P-DMR followed by a N-DMR”. In addition, in the test with HeLa cells [2], the “Type of DMR signal triggered” value is “N-DMR”, the “Classification as purinosome promoting or disrupting CK2 inhibitor” value is “pruinosome disrupting CK2 inhibitors”, the “Effect on purinosome complexes in quiescent cells” value was “causes the disassembly of basal purinosome complexes” and the “Effect on purinosome complexes in proliferating cells” value is “promote the formation of purinosomes”. For the same compound, in the test on HeLa cells [2], the “Effect of pretreatment on the DMAT DMR response” value is “slightly potentiated” and the “Sensitivity of the DMR signal to cellular status” value is given as “dramatically sensitive to cellular status”. The 50% effective concentration (EC50) with HeLa cells [2] (50 min, amplitude 50 min after stimulation, read-out: EC50 of dose-dependent N-DMR signal) came to 25 µM.
Take `O=C(O)/C=C/c1cc(Br)c(Br)c(Br)c1Br` [TBCA, Tetrabromocinnamic Acid]: in the test with HeLa cells [2], the “Type of DMR signal triggered” value is recorded as “DMR signals similar to the DMAT response”, the “Classification as purinosome promoting or disrupting CK2 inhibitor” value is given as “purinosome promoting CK2 inhibitors”, the “Effect of pretreatment on the DMAT DMR response” value was “desensitized” and the “Effect … on the TBB DMR response” value was “slightly potentiated”.
As for `O=c1cc(-c2ccc(O)cc2)oc2cc(O)cc(O)c12` [apigenin], in the test with HeLa cells [2], the “Type of DMR signal triggered” value is recorded as “DMR signals similar to the DMAT response” and the “Classification as purinosome promoting or disrupting CK2 inhibitor” value is on record as “purinosome promoting CK2 inhibitors”.
For the compound `Clc1cccc(Cl)c1N=C1NCCN1` [clonidine], in the test on HeLa cells [2], the “Effect … on the TBB DMR response” value was “dose-dependently potentiated”.
Consider `C/C1=C/C(=O)O[C@@H]2C[C@@H](CC[C@H](C)/C=C\C=C\CC1)O[C@@](O)([C@@H]1CSC(=O)N1)C2` [latrunculin A], for which, in the test on HeLa cells [2], the “Effect of pretreatment on the sequential TBB response after DMAT” value (“Effect of pretreatment … after DMAT” below) was “altered”, the “Effect of pretreatment on the sequential DMAT response after TBB” value was “smaller DMAT response”, the “Effect of pretreatment on the DMAT DMR response” value is “attenuated” and the “Effect … on the TBB DMR response” value was “completely inhibiting the early DMR event”.
In the same order, the values of `COC(=O)Nc1nc2ccc(C(=O)c3cccs3)cc2[nH]1` [nocodazole] are “slightly suppressed”, “suppression”, “potentiated” and “reversed”.
`Cc1cc(C(C)(C)C)c(O)c(C)c1CC1=NCCN1` [oxymetazoline]: in the test on HeLa cells [2], the “Type of DMR signal triggered” value is on record as “Gi-like DMR signal”, the “Effect of pretreatment … after DMAT” value is “potentiation” and the “Effect of pretreatment on the DMAT DMR response” value was “attenuated”.
Regarding `C[C@@H]1NC(=O)[C@H](C[C@@](C)(O)CO)NC(=O)[C@@H]2Cc3c([nH]c4ccccc34)SC[C@H](NC(=O)[C@@H]([C@H](C)O)NC1=O)C(=O)N1C[C@@H](O)C[C@H]1C(=O)N[C@@H](C)C(=O)N2` [phalloidin] (cyclo(A[dT]C[cisHyp]A[Trp(2-yl)][Leu(4R-OH,5-OH)]); thioether 3-6), in the test on HeLa cells [2], the “Effect of pretreatment on the DMAT DMR response” value is listed as “little impact” and the “Effect … on the TBB DMR response” value is listed as “little impact”.
With `CC(C)(C)NCC(O)c1cc(O)cc(O)c1` (stereo not drawn) [terbutaline], in the test with HeLa cells [2], the “Type of DMR signal triggered” value was “Gs-like DMR signal”, the “Effect of pretreatment … after DMAT” value is listed as “little or no impact” and the “Effect of pretreatment on the DMAT DMR response” value was “little or no impact”.
As for `CC[C@]1(O)C[C@@H]2CN(CCc3c([nH]c4ccccc34)[C@@](C(=O)OC)(c3cc4c(cc3OC)N(C)[C@H]3[C@@](O)(C(=O)OC)[C@H](OC(C)=O)[C@]5(CC)C=CCN6CC[C@]43[C@@H]65)C2)C1` [vinblastine], in the test with HeLa cells [2], the “Effect of pretreatment on the sequential DMAT response after TBB” value was “suppression” and the “Effect … on the TBB DMR response” value was “reversed”.
